Assay results from BigSolDB 2.1.

O=[N+]([O-])c1cc([N+](=O)[O-])c(O)c(Cl)c1O
Conditions	solubility (mole fraction)
in acetic acid, 299.35 K	0.00649
in acetic acid, 305.55 K	0.00872
in acetic acid, 311.45 K	0.0112
in acetic acid, 315.05 K	0.013
in acetic acid, 318.75 K	0.0149
in acetic acid, 321.85 K	0.0167
in acetic acid, 323.95 K	0.0179
in acetic acid, 327.65 K	0.0202
in acetic acid, 334.65 K	0.0248
in acetic acid, 336.45 K	0.026
in acetic acid, 340.45 K	0.0289
in acetic acid, 343.15 K	0.0308
in ethanol, 299.35 K	0.00297
in ethanol, 303.15 K	0.00355
in ethanol, 307.35 K	0.00428
in ethanol, 310.75 K	0.00493
in ethanol, 314.25 K	0.00568
in ethanol, 317.65 K	0.00648
in ethanol, 320.15 K	0.00711
in ethanol, 326.35 K	0.00882
in ethanol, 329.85 K	0.00989
in ethanol, 332.65 K	0.0108
in ethanol, 335.45 K	0.0118
in ethanol, 339.15 K	0.0131
in ethanol, 343.75 K	0.0148
in ethyl acetate, 298.75 K	0.0449
in ethyl acetate, 302.65 K	0.0474
in ethyl acetate, 306.25 K	0.0498
in ethyl acetate, 309.95 K	0.0525
in ethyl acetate, 313.85 K	0.0555
in ethyl acetate, 318.15 K	0.0589
in ethyl acetate, 323.15 K	0.0633
in ethyl acetate, 327.25 K	0.067
in ethyl acetate, 331.85 K	0.0716
in ethyl acetate, 333.35 K	0.0731
in ethyl acetate, 337.15 K	0.0772
in ethyl acetate, 342.55 K	0.0834
in ethyl acetate, 344.95 K	0.0863
in methanol, 299.75 K	0.00172
in methanol, 305.95 K	0.00239
in methanol, 308.75 K	0.00277
in methanol, 311.25 K	0.00316
in methanol, 313.65 K	0.00359
in methanol, 315.95 K	0.00406
in methanol, 318.15 K	0.00456
in methanol, 320.75 K	0.00524
in methanol, 323.35 K	0.006
in methanol, 327.05 K	0.00731
in methanol, 330.15 K	0.0086
in water, 298.85 K	3.49e-05
in water, 301.15 K	3.65e-05
in water, 303.65 K	4.23e-05
in water, 306.35 K	4.59e-05
in water, 309.05 K	4.86e-05
in water, 311.35 K	5.44e-05
in water, 313.35 K	5.67e-05
in water, 315.75 K	6.29e-05
in water, 318.15 K	6.8e-05
in water, 320.65 K	7.62e-05
in water, 323.15 K	8.17e-05
in water, 325.85 K	9.12e-05
in water, 327.45 K	9.79e-05
in water, 330.15 K	0.000106
in water, 332.25 K	0.000113
in water, 336.35 K	0.00013
in water, 339.55 K	0.000142
in water, 341.95 K	0.000152
